The text below walks through data of patent US6207596A, “Disposable premoistened wipe containing an antimicrobial protease inhibitor” (The Procter & Gamble Company, priority 1998, dated 2001).

The IC50 is the concentration needed to halve the response being measured. A low value points to higher potency.

One assay concerns fecal trypsin. Description: Method 2a: Efficacy of Protease Inhibitors in Fecal Trypsin. It counts as biochemical. Conditions: pooled infant fecal suspension; 25° C., 405 nm corrected by 490 nm. As to the method: (§1) Standard in vitro assays for determining enzyme activity, and inhibition of enzyme activity, are well known. The reagents used to conduct these tests are generally commercially available. In general, a simple system comprises an enzyme-specific substrate which, when hydrolyzed by the enzyme, produces a colored product. The activity of the enzyme is measured spectrophotometrically as the degree of development of the colored product (i.e.; the rate of color change) over a predetermined time period.
(§2) The inhibitory activity of an enzyme inhibitor may be calculated according to the following equation: […]
(§3) In the methods, v and vi are measured as the change in absorbency (optical density, OD) at a given wavelength/time (e.g., minutes). […]
Serial dilutions of a protease inhibitor are made using distilled water. A 0.7 ml aliquot of each dilution of protease inhibitor to be evaluated is added to a microcuvette. […]
A volume of 0.1 mL of fecal suspension is added to the microcuvette and mixed. The absorbency of the mixture at 490 nm is measured with the spectrophotometer. […] The absorbency of the mixture at 405 nm is then measured with the spectrophotometer over a period of 5 minutes at 25° C. These […] in order to correct for any background interference. […]

For a further assay, the system named is Staphylococcus aureus. Description: Method 3: antimicrobial activity (NCCLS dilution, MIC), S. aureus. Format: cell-based, Staphylococcus aureus ATCC 25923. The conditions noted are these: ATCC25923, ATCC 25923, diluted with distilled water, 24 hours at 37° C., read-out: Minimal Inhibitory Concentration. The method, then: (§4) 3. Method for Determining the Activity of Antimicrobial Agents:
(§5) This method is used to determine the antimicrobial activity of antimicrobial agents. The antimicrobial activity of an antimicrobial agent is tested according to the National Committee for Clinical Laboratory Standards ("NCCLS") Methods. The NCCLS Dilution Antimicrobial Susceptibility Test for Bacteria Which Grow Aerobically is used (i.e.; NCCLS Document M7-A2, 1990).
(§6) Serial two-fold dilutions of the antimicrobial agent are made in trypticase soy broth in a microtiter plate (in the case of hexamidine diisethionate a 1000 μM starting concentration is recommended). Microorganism inocula are prepared by harvesting colonies from agar plates into saline and adjusting the optical density of the solution to be equivalent to the 0.5 McFarland standard. Each microorganism suspension is diluted 1:10 and 10 microliters of the suspension added to each microtiter well.
(§7) The microtiter plates are sealed and incubated for 24 hours at 37° C. The highest dilution of the antimicrobial agent preventing growth is recorded as the minimal inhibitory concentration ("MIC").
(§8) Referring to Table II, the antimicrobial activity of hexamidine diisethionate on three different microorganisms is shown. For purposes of this example, hexamidine diisethionate was diluted with distilled water and evaluated according to Method 3 above. […]

For another assay, the system named is Candida albicans. The assay can be described thus: Method 3: antimicrobial activity (NCCLS dilution, MIC), C. albicans. Format: cell-based, Candida albicans ATCC 10231. Conditions: ATCC10231, ATCC 10231, diluted with distilled water, 24 hours at 37° C., read-out: Minimal Inhibitory Concentration. The method, then:
as §4, §5, §6, §7, §8

For the next assay, the system named is Escherichia coli. The assay can be described thus: Method 3: antimicrobial activity (NCCLS dilution, MIC), E. coli. The conditions noted are these: ATCC25922, ATCC 25922, diluted with distilled water, 24 hours at 37° C., read-out: Minimal Inhibitory Concentration. It counts as cell-based. The method, then:
as §4, §5, §6, §7, §8

In assay [1] the test system is purified trypsin (human pancreatic trypsin). The assay can be described thus: Method 1a: Efficacy of Protease Inhibitors in Purified Trypsin. The conditions noted are these: 25° C., 405 nm; inhibitor diluted in distilled water. It counts as biochemical. The method, then: as §1, §2, §3
Serial dilutions of a protease inhibitor are made using distilled water. A 50 μl aliquot of each serial dilution of protease inhibitor to be evaluated is added to a microcuvette containing 0.020 ml of trypsin buffer and 0.105 ml of purified trypsin. […]
After incubating, 0.025 ml of the 4 mM N-carbobenzyloxy-arginine-p-nitroanilide substrate solution is added to the microcuvette. […] The absorbency of the mixture is then measured at a wavelength of 405 nm over a period of 10 minutes at a temperature of 25° C. […]

On to `N=C(N)c1ccc(OCCCCCCOc2ccc(C(=N)N)cc2)cc1` [hexamidine diisethionate], for which the IC50 was 2.3 µM with fecal trypsin and 2.5 µM in assay [1]. The MIC stood at 3 µM in the assay with Staphylococcus aureus, 13 µM in the assay with Candida albicans and 53 µM with Escherichia coli.
